Measured values reported in patent publication US20260274797A1, “PROPIONIC ACID DERIVATIVE AND USE THEREOF IN MEDICINE” (Xizang Haisco Pharmaceutical Co., Ltd., priority 2022, published 2026).
Structures can show the parent of a compound that is named as a salt. One block for each molecule: values may come before it.

Legend:
[1] = Test of stability in liver microsomes (rat); assay type: in vitro ADME; conditions: 1 μM test compound, NADPH, 37° C.
Procedure: (§1) In this experiment, liver microsomes of three species, including monkey, rat and mouse, were used as in vitro models to evaluate the metabolic stability of the test compound.
(§2) At 37° C., 1 μM of the test compound was co-incubated with microsomal protein and coenzyme NADPH. At given time points of the reaction (5 min, 10 min, 20 min, 30 min, and 60 min), the reaction was terminated by adding ice-cold acetonitrile containing an internal standard. The LC-MS/MS method was used to measure the concentration of the test compound in the sample. T1/2 was calculated using the natural logarithm (ln) of the residual rate of the drug in the incubation system and the incubation time. In addition, the intrinsic clearance in liver microsomes CLint(mic) and the intrinsic clearance in liver CLint(Liver) were further calculated.

[2] = Test of stability in liver microsomes (monkey); assay type: in vitro ADME; conditions: 1 μM test compound, NADPH, 37° C.
Procedure: as §1, §2

[3] = Test of stability in liver microsomes (mouse); assay type: in vitro ADME; conditions: 1 μM test compound, NADPH, 37° C.
Procedure: as §1, §2

[4] = Pharmacokinetic test in rats; assay type: in vivo, SD rats
Procedure: Experimental animals: Male SD rats, about 220 g, 6-8 weeks old, 6 rats/compound, purchased from Chengdu Ddossy Experimental Animals Co., Ltd.
Experimental design: on the day of the test, 6 SD rats/compound were randomly grouped according to their body weights. The animals were fasted with water available for 12 to 14 h one day before the administration and were fed 4 h after the administration.

integrin α4β1 = target: T1, integrin α4β1 (Homo sapiens, UniProt P05556+P13612); test: Integrin α4β1-mediated cell adhesion assay (Jurkat cells on VCAM); assay type: cell-based; conditions: for IC50: Jurkat cells adhering to VCAM-1, α4β1-mediated cell adhesion; for α4β1/α4β7: selectivity ratio, Jurkat (α4β1)/VCAM-1 IC50 over RPMI-8866 (α4β7)/MadCAM-1 IC50
T1 construct: Jurkat cells were collected, washed twice using DPBS buffer; endogenous in cells; host or cells: Jurkat cells
Procedure: VCAM was formulated into a final concentration of […] with a coating buffer, 50 μl of the solution was transferred to a 96-well plate, and the plate was coated with same at 4° C. overnight. The plate was washed with coating buffer three times, then 150 μl of a blocking solution (coating buffer containing 1% BSA) was added, and the plate was blocked at 37° C. for 1 h. Jurkat cells were collected, washed twice using DPBS buffer, and then resuspended to 4×10^6 cells/ml with an action buffer. 50 μl of the cell suspension was transferred to a 96-well plate so that the cell density reached 2×10^5 cells/well. Then 1 μl of the test compound at different concentration or DMSO was added and the plate was incubated at 37° C. for 1 h. The plate was washed with coating buffer to remove non-adherent cells. 50 μl of a substrate (4-nitrophenyl-N-acetyl-β-D-glucosaminide) was added and the plate was incubated at 37° C. for 2 h.
Coating buffer: DMEM+20 mM HEPES+0.4 mM MnCl2
Action buffer: DMEM+20 mM HEPES+0.1% BSA+0.4 mM MnCl2
DMEM: dulbecco's modified eagle medium;
HEPES: 2-[4-(2-hydroxyethyl)piperazin-1-yl]ethanesulfonic acid

integrin α4β7 = target: T2, integrin α4β7 (Homo sapiens, UniProt P13612+P26010); test: Integrin α4β7 cell adhesion assay (RPMI8866 cells on MAdCAM-1); assay type: cell-based; conditions: RPMI8866 cells adhering to MAdCAM-1; α4β7-mediated cell adhesion; read-out: RPMI-8866 (α4β7)/MadCAM-1 IC50
T2 sequence (P13612 34-1032): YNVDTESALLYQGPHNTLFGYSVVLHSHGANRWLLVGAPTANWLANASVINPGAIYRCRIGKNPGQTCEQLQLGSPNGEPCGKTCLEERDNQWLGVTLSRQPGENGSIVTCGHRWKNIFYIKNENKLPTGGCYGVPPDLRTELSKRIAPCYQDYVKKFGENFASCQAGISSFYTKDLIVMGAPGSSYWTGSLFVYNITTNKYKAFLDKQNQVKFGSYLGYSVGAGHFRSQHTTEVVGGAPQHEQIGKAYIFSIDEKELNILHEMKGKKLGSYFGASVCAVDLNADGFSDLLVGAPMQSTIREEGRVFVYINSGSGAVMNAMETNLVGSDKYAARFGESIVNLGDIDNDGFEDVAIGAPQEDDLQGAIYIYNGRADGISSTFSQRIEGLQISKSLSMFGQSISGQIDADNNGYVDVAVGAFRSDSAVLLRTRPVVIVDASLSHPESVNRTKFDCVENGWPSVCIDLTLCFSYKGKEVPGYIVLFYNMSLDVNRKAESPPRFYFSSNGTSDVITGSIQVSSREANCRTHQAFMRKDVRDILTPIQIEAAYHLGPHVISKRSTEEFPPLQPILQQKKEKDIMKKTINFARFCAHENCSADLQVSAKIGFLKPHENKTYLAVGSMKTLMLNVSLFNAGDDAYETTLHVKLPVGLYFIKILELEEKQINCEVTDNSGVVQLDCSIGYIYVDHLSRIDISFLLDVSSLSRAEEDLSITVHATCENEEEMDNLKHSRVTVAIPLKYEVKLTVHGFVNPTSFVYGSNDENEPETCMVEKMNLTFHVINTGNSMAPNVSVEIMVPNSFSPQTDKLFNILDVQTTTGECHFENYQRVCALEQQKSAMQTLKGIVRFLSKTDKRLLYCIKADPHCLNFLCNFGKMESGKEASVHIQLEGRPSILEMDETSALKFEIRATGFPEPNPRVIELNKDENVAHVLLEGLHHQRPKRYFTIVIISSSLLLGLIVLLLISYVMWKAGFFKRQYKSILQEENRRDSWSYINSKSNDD
T2 sequence (P26010 20-798): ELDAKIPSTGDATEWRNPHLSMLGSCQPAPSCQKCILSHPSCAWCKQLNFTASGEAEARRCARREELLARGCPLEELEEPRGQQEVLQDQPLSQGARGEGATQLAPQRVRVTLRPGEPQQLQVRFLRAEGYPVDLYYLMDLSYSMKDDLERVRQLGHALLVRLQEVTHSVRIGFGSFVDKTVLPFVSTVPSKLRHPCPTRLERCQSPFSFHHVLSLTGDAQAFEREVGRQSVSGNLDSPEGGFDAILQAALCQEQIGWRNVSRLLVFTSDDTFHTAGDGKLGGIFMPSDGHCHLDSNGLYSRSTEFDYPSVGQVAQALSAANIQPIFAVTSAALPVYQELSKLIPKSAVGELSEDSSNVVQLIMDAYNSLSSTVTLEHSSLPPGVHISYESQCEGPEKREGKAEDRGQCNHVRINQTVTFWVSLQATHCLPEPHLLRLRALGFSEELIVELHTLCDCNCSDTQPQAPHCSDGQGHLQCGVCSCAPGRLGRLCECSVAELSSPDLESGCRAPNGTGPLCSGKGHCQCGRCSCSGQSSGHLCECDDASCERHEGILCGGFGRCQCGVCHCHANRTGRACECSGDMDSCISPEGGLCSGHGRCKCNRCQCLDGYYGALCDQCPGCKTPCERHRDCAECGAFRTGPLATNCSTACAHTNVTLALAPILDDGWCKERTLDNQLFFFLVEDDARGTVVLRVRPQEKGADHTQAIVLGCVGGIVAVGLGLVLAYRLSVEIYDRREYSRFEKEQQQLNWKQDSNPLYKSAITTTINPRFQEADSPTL
Procedure: MAdCAM-1 was formulated with TBS buffer to a final concentration of […], 50 μl of the solution was transferred to a 96-well plate, and the plate was coated with same at 4° C. overnight. The plate was washed with TBS buffer three times, then 150 μl of a blocking solution (TBS buffer containing 1% BSA) was added, and the plate was blocked at 37° C. for 1 h. […] 50 μl of the cell suspension was transferred to a 96-well plate so that the cell density reached 2×10^5 cells/well. Then 1 μl of the compound at different concentrations or DMSO was added and the plate was incubated at 37° C. for 1 h or 2 h. The plate was washed with TBS buffer to remove non-adherent cells. 50 μl of a substrate (4-nitrophenyl-N-acetyl-o-D-glucosaminide) was added and the plate was incubated at 37° C. for 2 h. […] The IC50 value was calculated using GraphPad Prism 6 software.

[5] = read-out: Hepatic intrinsic clearance CLint(liver)
[6] = read-out: Hepatic microsomal intrinsic clearance CLint (mic)

T1 sequence (P05556 21-798, one chain of several): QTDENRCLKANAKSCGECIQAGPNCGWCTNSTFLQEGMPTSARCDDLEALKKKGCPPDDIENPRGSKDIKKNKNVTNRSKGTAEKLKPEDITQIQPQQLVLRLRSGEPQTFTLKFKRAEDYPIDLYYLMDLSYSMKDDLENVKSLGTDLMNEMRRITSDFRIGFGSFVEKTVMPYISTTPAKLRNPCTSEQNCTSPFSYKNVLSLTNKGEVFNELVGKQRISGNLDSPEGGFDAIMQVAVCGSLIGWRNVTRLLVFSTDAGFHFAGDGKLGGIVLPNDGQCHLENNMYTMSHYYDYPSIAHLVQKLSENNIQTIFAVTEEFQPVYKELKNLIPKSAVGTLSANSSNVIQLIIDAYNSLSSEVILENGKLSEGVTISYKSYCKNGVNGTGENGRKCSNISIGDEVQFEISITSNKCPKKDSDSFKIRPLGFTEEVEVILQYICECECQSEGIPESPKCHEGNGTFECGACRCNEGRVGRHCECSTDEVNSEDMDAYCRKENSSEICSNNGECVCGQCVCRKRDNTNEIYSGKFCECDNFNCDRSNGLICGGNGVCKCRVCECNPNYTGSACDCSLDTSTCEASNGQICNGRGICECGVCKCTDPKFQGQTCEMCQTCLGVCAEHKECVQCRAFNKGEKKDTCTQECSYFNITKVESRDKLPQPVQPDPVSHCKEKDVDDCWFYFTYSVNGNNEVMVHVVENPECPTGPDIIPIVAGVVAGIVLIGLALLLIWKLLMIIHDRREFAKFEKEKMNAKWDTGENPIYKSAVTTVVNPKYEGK

Structure (SMILES): Cc1cc(-c2c(C)cc(F)cc2C)cc([C@H](CC(=O)O)NC(=O)[C@H](CC(C)C)n2cc(CCN(C)C)c(C(F)(F)F)cc2=O)c1F [Control compound A]
half-life at 1 μM [1]: 35.7 min | CLint scaled at 1 μM [1, 5]: 69.9 mL/min/kg | microsomal CLint at 1 μM [1, 6]: 38.8 µL/min/mg | half-life at 1 μM [2]: 10.6 min | CLint scaled at 1 μM [2, 5]: 176 mL/min/kg | microsomal CLint at 1 μM [2, 6]: 130 µL/min/mg | half-life at 1 μM [3]: 49.3 min | CLint scaled at 1 μM [3, 5]: 111 mL/min/kg | microsomal CLint at 1 μM [3, 6]: 28.1 µL/min/mg | F ([4]; PO: 10 mg/kg vs iv […] (footnote, control compound A)): 23.9% | AUC ([4]; male, SD, rat, plasma, PO: 10 mg/kg (footnote, control compound A)): 900 ng·h/mL | clearance ([4]; male, SD, rat, plasma, iv 2.5 mg/kg (footnote, control compound A)): 45.8 mL/min/kg

Structure (SMILES): Cc1cc(F)cc(C)c1-c1c(F)c(C(CC(=O)O)NC(=O)[C@H](CC(C)C)n2cc(CCC3CCCN3C)c(C(F)(F)F)cc2=O)c(F)c2c1CCC2 (single isomer, unassigned) [Trifluoroacetate salt of compound 28-2]
IC50 (integrin α4β1): > 100 nM

Structure (SMILES): Cc1cc(F)cc(C)c1-c1cc(C(CC(=O)O)NC(=O)C(CC(C)C)n2cc(CCN(C)CC3CC3(F)F)c(C(F)(F)F)cc2=O)cc2c1CCC2 (single isomer, unassigned) [Compound 1-2]
IC50 (integrin α4β1): > 100 nM

Structure (SMILES): Cc1cc(F)cc(C)c1-c1cc(C(CC(=O)O)NC(=O)C(CC(C)C)n2cc(CC3CCN(C(C)C)CC3)c(C(F)(F)F)cc2=O)cc2c1CCC2 (stereo not shown) [Trifluoroacetate salt of compound 22-2]
IC50 (integrin α4β1): > 100 nM | IC50 (integrin α4β7): < 0.5 nM

Structure (SMILES): COc1cc(C)c(-c2c(F)c(C(CC(=O)O)NC(=O)C(CC(C)C)n3cc(CCN(C)C)c(C(F)(F)F)cc3=O)c(F)c3c2CCC3)c(C)c1 (single isomer, unassigned) [Trifluoroacetate salt of compound 21-2]
IC50 (integrin α4β1): > 500 nM | IC50 (integrin α4β7): < 1 nM

Structure (SMILES): COc1cc(C)c(-c2c(F)c(C(CC(=O)O)NC(=O)C(CC(C)C)n3cc(CCN(C)C)c(C(F)(F)F)cc3=O)c(F)c3c2CCC3)c(C)c1 (stereo not shown) [Compound 21-A]
IC50 (integrin α4β1): > 100 nM

Structure (SMILES): Cc1cc(F)cc(C)c1-c1c(F)c(C(CC(=O)O)NC(=O)C(CC(C)C)n2cc(CCC3CCN(C)C3)c(C(F)(F)F)cc2=O)c(F)c2c1CCC2 (stereo not shown) [Trifluoroacetate salt of compound 26-2]
IC50 (integrin α4β1): > 100 nM | IC50 (integrin α4β7): < 1 nM

Continued, values first:

IC50 (integrin α4β1): > 100 nM | α4β1/α4β7 (integrin α4β1): 643 | IC50 (integrin α4β7): < 0.5 nM
Structure (SMILES): Cc1ccc2[nH]ncc2c1-c1c(F)c(C(CC(=O)O)NC(=O)[C@H](CC(C)C)n2cc(CCN(C)C)c(C(F)(F)F)cc2=O)c(F)c2c1CCC2 (stereo partly shown) [Compound 33-2]

IC50 (integrin α4β1): > 300 nM | α4β1/α4β7 (integrin α4β1): 1143 | IC50 (integrin α4β7): < 0.5 nM
Structure (SMILES): [2H]C([2H])([2H])Oc1cc(C)c(-c2c(F)c([C@H](CC(=O)O)NC(=O)C(CC(C)C)n3cc(CCN4CCC4)c(C(F)(F)F)cc3=O)c(F)c3c2CCC3)c(C)c1 (stereo partly shown) [Compound 40-2]

CL ([4]; IV: 1 mg/kg): 20.2 mL/kg/min
Structure (SMILES): Cc1cc(F)cc(C)c1-c1c(F)c(C(CC(=O)O)NC(=O)[C@H](CC(C)C)n2cc(CC3CN(C(C)C)C3)c(C(F)(F)F)cc2=O)c(F)c2c1CCC2 (stereo partly shown) [Compound 32-2]
